Among the test systems are HCC 2998; HOP-62; HOP-92; Hs-578T; MCF7; MDA-N; NCI-H226; NCI-H522; NCI/ADR-RES; OVCAR-8; RXF 393; SF-295; SNB-19; TK-10; UACC-257; CCRF-CEM; EKVX; HL-60; LOX IMVI; T47D.
Common to all, as to assay: DTP human tumour cell line panel, 48 h

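Briefly, cells in 96-well plates were exposed to five compound concentrations for 48 h, and endpoints were estimated by linear interpolation. The concentration for 50% growth inhibition is given as GI50.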 The source made the active and inactive calls. Cut-off read from the data, not from the text of the source: active = GI50 up to about 1.1 µM and inactive = higher.

The term GI50 denotes the concentration giving 50% growth inhibition. `COC(=O)c1ccc(COC(=O)N2C=CCC2C(=O)O)cc1` (stereo not drawn): the GI50 in the assay with HCC 2998 is > 100 µM (inactive); with HOP-62, > 100 µM (inactive); in the assay with HOP-92, 63 µM (inactive); in the assay with Hs-578T, > 100 µM (inactive); with MCF7 it was > 100 µM (inactive); in the assay with MDA-N, > 100 µM (inactive). Moreover, the GI50 with NCI-H226, in the assay on NCI-H522, in the assay on NCI/ADR-RES, in the assay on OVCAR-8, in the assay on RXF 393 and with SF-295 was > 100 µM (inactive) in each case. The GI50 with SNB-19, with TK-10 and in the assay with UACC-257 was > 100 µM (inactive) each time.
Turning to `Cc1cc2c(cc1Cl)SC(N/N=C(\N)c1ccc(Cl)cc1)=NS2(=O)=O`, the GI50 is 43.3 µM (inactive) in the assay with CCRF-CEM; 72.9 µM (inactive) in the assay with EKVX; 40.6 µM (inactive) in the assay on HCC 2998; 40.5 µM (inactive) in the assay on HL-60; > 100 µM (inactive) in the assay on HOP-62; 10.4 µM (inactive) with HOP-92. In addition, the GI50 was 48.5 µM (inactive) in the assay on Hs-578T; 43 µM (inactive) in the assay on LOX IMVI; 14.1 µM (inactive) in the assay with MCF7; > 100 µM (inactive) in the assay with NCI-H226; 30.6 µM (inactive) in the assay with NCI-H522; > 100 µM (inactive) in the assay on NCI/ADR-RES. For the same compound, the GI50 in the assay on OVCAR-8 is 45.4 µM (inactive); in the assay on RXF 393, 90.2 µM (inactive); in the assay with SF-295, 71.3 µM (inactive); with SNB-19, 77.4 µM (inactive); in the assay with T47D, 53.3 µM (inactive); in the assay on TK-10, > 100 µM (inactive). Besides, the GI50 in the assay with UACC-257 was 62.7 µM (inactive).
In the case of `Cc1nnc([C@@]2(C)CC[C@H]3[C@@H](CCC4=CC(=O)CC[C@@]43C)[C@@H]2CC#N)o1`, the GI50 in the assay with CCRF-CEM, in the assay on EKVX, in the assay on HL-60, in the assay on HOP-62, in the assay on HOP-92 and in the assay with Hs-578T was > 100 µM (inactive) in each case. The GI50 in the assay on LOX IMVI, in the assay with MCF7, in the assay with MDA-N, with NCI-H226, with NCI-H522 and in the assay with NCI/ADR-RES was > 100 µM (inactive) throughout. Besides, the GI50 in the assay with OVCAR-8, in the assay on RXF 393, in the assay on SF-295, with SNB-19, in the assay with TK-10 and in the assay on UACC-257 was > 100 µM (inactive) in each case.
Turning to `NS(=O)(=O)c1ccc2c(c1)OCCOCCOCCOCCO2`, the GI50 in the assay with CCRF-CEM, in the assay with EKVX, in the assay with HCC 2998, in the assay on HL-60, with HOP-62 and in the assay on Hs-578T was > 100 µM (inactive) throughout. Moreover, the GI50 with LOX IMVI, with MCF7, in the assay with NCI-H226, in the assay on NCI-H522, in the assay on OVCAR-8 and in the assay with SF-295 was > 100 µM (inactive) each time. Also, the GI50 in the assay on SNB-19, in the assay on T47D, in the assay on TK-10 and in the assay on UACC-257 was > 100 µM (inactive) throughout.
With `Cc1cs/c(=N\C(P(=O)(O)O)P(=O)(O)O)n1C`, the GI50 with CCRF-CEM is > 100 µM (inactive); in the assay with EKVX it was > 100 µM (inactive); in the assay on HCC 2998, > 100 µM (inactive); with HL-60 it was < 0.01 µM (active); with HOP-62, > 100 µM (inactive); with HOP-92, 42.9 µM (inactive). Moreover, the GI50 was 10.1 µM (inactive) in the assay on Hs-578T; > 100 µM (inactive) in the assay on LOX IMVI; > 100 µM (inactive) in the assay on MCF7; > 100 µM (inactive) in the assay on MDA-N; > 100 µM (inactive) in the assay on NCI-H226; > 100 µM (inactive) in the assay with NCI-H522. Also, the GI50 with NCI/ADR-RES, with OVCAR-8, in the assay on RXF 393, with SF-295, in the assay on SNB-19 and in the assay with TK-10 was > 100 µM (inactive) throughout. Further, the GI50 in the assay on UACC-257 was > 100 µM (inactive).
As to `CC1=CC(=O)N(n2c(-c3ccccc3)n[nH]c2=O)C1=O`, the GI50 was 43.9 µM (inactive) with CCRF-CEM; > 100 µM (inactive) in the assay on EKVX; > 100 µM (inactive) in the assay with HCC 2998; > 100 µM (inactive) in the assay with HL-60; > 100 µM (inactive) in the assay with HOP-62; > 100 µM (inactive) in the assay on Hs-578T. Moreover, the GI50 in the assay with LOX IMVI, in the assay on MCF7, in the assay on NCI-H226, with NCI-H522, in the assay on NCI/ADR-RES and in the assay with OVCAR-8 was > 100 µM (inactive) throughout. The GI50 in the assay on RXF 393, in the assay on SF-295, with SNB-19, in the assay with T47D, in the assay on TK-10 and in the assay with UACC-257 was > 100 µM (inactive) each time.
`O=C1CCCC/C1=C(\Br)I`: the GI50 with CCRF-CEM was 1.77 µM (inactive); in the assay on EKVX, 18.7 µM (inactive); in the assay on HCC 2998 it was 4.95 µM (inactive); in the assay with HL-60, 2.12 µM (inactive); in the assay on HOP-62, 19.2 µM (inactive); in the assay on HOP-92, 17.9 µM (inactive). Besides, the GI50 in the assay with Hs-578T is 35.4 µM (inactive); with LOX IMVI, 16.7 µM (inactive); in the assay on MCF7 it was 12.8 µM (inactive); in the assay on NCI-H226 it was 23.4 µM (inactive); with NCI-H522, 1.56 µM (inactive); in the assay on NCI/ADR-RES, 19 µM (inactive). Moreover, the GI50 was 14.5 µM (inactive) with OVCAR-8; 15.6 µM (inactive) in the assay with RXF 393; 17.5 µM (inactive) in the assay with SF-295; 20.7 µM (inactive) in the assay on SNB-19; 7 µM (inactive) in the assay on T47D; 13.9 µM (inactive) in the assay on TK-10. In the assay on UACC-257, the GI50 was 16.6 µM (inactive).
Consider `CC(=O)OCC1OC(n2c(=O)[nH]c(=O)c3sccc32)C(Br)C1OC(C)=O` (stereo not drawn), for which the GI50 in the assay on CCRF-CEM, in the assay on EKVX, in the assay on HCC 2998, in the assay with HL-60, in the assay on HOP-62 and with HOP-92 was > 100 µM (inactive) in each case. For the same compound, the GI50 with Hs-578T, in the assay on LOX IMVI, with MCF7, with MDA-N, with NCI-H226 and in the assay with NCI-H522 was > 100 µM (inactive) each time. Also, the GI50 with NCI/ADR-RES, in the assay with OVCAR-8, in the assay with RXF 393, in the assay with SF-295, in the assay on SNB-19 and in the assay with TK-10 was > 100 µM (inactive) throughout. For the same compound, the GI50 in the assay on UACC-257 is > 100 µM (inactive).

The record behind these values is ChEMBL document CHEMBL1201862, “PubChem BioAssay data set” (2004).
